The NIST ThermoML archive (doi:10.1021/je700260f)

Details: Liquid, Vibrating tube method

FC(C(F)(F)F)C(F)(F)F [1,1,1,2,3,3,3-heptafluoropropane]
Details | mass density [kg/m3]
323.14 K, 26341 kPa | 1449.9
323.14 K, 26367 kPa | 1450.1
323.14 K, 26395 kPa | 1450.2
323.14 K, 26427 kPa | 1450.3
323.14 K, 26451 kPa | 1450.5
323.14 K, 26475 kPa | 1450.5
323.14 K, 26513 kPa | 1450.7
323.14 K, 26548 kPa | 1450.8
323.14 K, 26575 kPa | 1450.8
323.14 K, 26605 kPa | 1451
323.14 K, 26630 kPa | 1451.2
323.14 K, 26654 kPa | 1451.3
323.14 K, 26689 kPa | 1451.4
323.14 K, 26725 kPa | 1451.6
323.14 K, 26749 kPa | 1451.6
323.14 K, 26779 kPa | 1451.8
323.14 K, 26810 kPa | 1451.9
323.14 K, 26834 kPa | 1451.9
323.14 K, 26866 kPa | 1452.2
323.14 K, 26907 kPa | 1452.2
323.14 K, 26931 kPa | 1452.3
323.14 K, 26964 kPa | 1452.5
323.14 K, 26991 kPa | 1452.7
323.14 K, 27019 kPa | 1452.7
323.14 K, 27049 kPa | 1452.9
323.14 K, 27086 kPa | 1452.9
323.14 K, 27111 kPa | 1453.1
323.14 K, 27141 kPa | 1453.2
323.14 K, 27170 kPa | 1453.4
323.14 K, 27208 kPa | 1453.4
323.14 K, 27239 kPa | 1453.6
323.14 K, 27261 kPa | 1453.7
323.14 K, 27301 kPa | 1453.9
323.14 K, 27337 kPa | 1453.9
323.14 K, 27364 kPa | 1454.2
323.14 K, 27407 kPa | 1454.4
323.14 K, 27446 kPa | 1454.5
323.14 K, 29221 kPa | 1461.5
323.14 K, 29254 kPa | 1461.6
323.14 K, 29283 kPa | 1461.7
323.14 K, 29320 kPa | 1461.9
323.14 K, 29357 kPa | 1462
323.14 K, 29386 kPa | 1462.2
323.14 K, 29420 kPa | 1462.2
323.14 K, 29450 kPa | 1462.4
323.14 K, 29481 kPa | 1462.5
323.14 K, 29512 kPa | 1462.7
323.14 K, 29551 kPa | 1462.8
323.14 K, 29581 kPa | 1462.9
323.14 K, 29617 kPa | 1463.1
323.14 K, 29647 kPa | 1463.3
323.14 K, 29673 kPa | 1463.3
323.14 K, 29712 kPa | 1463.4
323.14 K, 30912 kPa | 1468
323.14 K, 30939 kPa | 1468.2
323.14 K, 30970 kPa | 1468.1
323.14 K, 31016 kPa | 1468.3
323.14 K, 31057 kPa | 1468.4
323.14 K, 31085 kPa | 1468.6
323.14 K, 31126 kPa | 1468.7
323.14 K, 31158 kPa | 1468.9
323.14 K, 31190 kPa | 1468.9
323.14 K, 31227 kPa | 1469.2
323.14 K, 31260 kPa | 1469.2
323.14 K, 31289 kPa | 1469.4
323.14 K, 31322 kPa | 1469.5
323.14 K, 31350 kPa | 1469.7
323.14 K, 31393 kPa | 1469.8
323.14 K, 31427 kPa | 1469.8
323.14 K, 31456 kPa | 1469.9
323.14 K, 31496 kPa | 1470.1
323.14 K, 31525 kPa | 1470.2
323.14 K, 31560 kPa | 1470.3
323.14 K, 31593 kPa | 1470.5
323.14 K, 31631 kPa | 1470.6
323.14 K, 31664 kPa | 1470.7
323.14 K, 31692 kPa | 1470.8
323.14 K, 31727 kPa | 1470.8
323.14 K, 31759 kPa | 1471.1
323.14 K, 31798 kPa | 1471.2
323.14 K, 31833 kPa | 1471.3
323.14 K, 31867 kPa | 1471.5
323.14 K, 31900 kPa | 1471.6
323.14 K, 31935 kPa | 1471.8
323.14 K, 31970 kPa | 1471.9
323.14 K, 32005 kPa | 1472.1
323.14 K, 32035 kPa | 1472.1
323.14 K, 32074 kPa | 1472.2
323.14 K, 32106 kPa | 1472.4
323.14 K, 32145 kPa | 1472.5
323.14 K, 32183 kPa | 1472.7
323.14 K, 32213 kPa | 1472.9
323.14 K, 32256 kPa | 1472.9
323.14 K, 32290 kPa | 1473
323.14 K, 32334 kPa | 1473.2
323.14 K, 32359 kPa | 1473.2
323.14 K, 32392 kPa | 1473.5
323.14 K, 32426 kPa | 1473.5
323.14 K, 32453 kPa | 1473.6
323.14 K, 32494 kPa | 1473.7
323.14 K, 32530 kPa | 1473.9
323.14 K, 32562 kPa | 1474.1
323.14 K, 32595 kPa | 1474.2
323.14 K, 32625 kPa | 1474.2
323.14 K, 32718 kPa | 1474.5
323.14 K, 32751 kPa | 1474.7
323.14 K, 32788 kPa | 1474.8
323.14 K, 32825 kPa | 1475.1
323.14 K, 32856 kPa | 1475.1
323.14 K, 32888 kPa | 1475.2
323.14 K, 32921 kPa | 1475.3
323.14 K, 32953 kPa | 1475.5
323.14 K, 32985 kPa | 1475.4
323.14 K, 33019 kPa | 1475.7
323.14 K, 33051 kPa | 1475.7
323.14 K, 33084 kPa | 1475.8
323.14 K, 33112 kPa | 1476.1
323.14 K, 33140 kPa | 1476.1
323.14 K, 33174 kPa | 1476.3
323.14 K, 33204 kPa | 1476.4
323.14 K, 33237 kPa | 1476.4
323.14 K, 33283 kPa | 1476.6
323.14 K, 33320 kPa | 1476.7
323.14 K, 33348 kPa | 1476.8
323.14 K, 33380 kPa | 1477
323.14 K, 33409 kPa | 1477.2
323.14 K, 33451 kPa | 1477.2
323.14 K, 33480 kPa | 1477.5
323.14 K, 33527 kPa | 1477.5
323.14 K, 33556 kPa | 1477.6
323.14 K, 33594 kPa | 1477.8
323.14 K, 33624 kPa | 1477.9
323.14 K, 33659 kPa | 1477.9
323.14 K, 33689 kPa | 1477.9
323.14 K, 33733 kPa | 1478.3
323.14 K, 33772 kPa | 1478.3
323.14 K, 33801 kPa | 1478.4
323.14 K, 33844 kPa | 1478.5
323.14 K, 33873 kPa | 1478.6
323.14 K, 33912 kPa | 1478.8
323.14 K, 33947 kPa | 1479
323.14 K, 33988 kPa | 1479.1
323.14 K, 34019 kPa | 1479.2
323.14 K, 34056 kPa | 1479.3
323.14 K, 34088 kPa | 1479.4
323.14 K, 34126 kPa | 1479.7
323.14 K, 34164 kPa | 1479.7
323.14 K, 34203 kPa | 1479.9
323.14 K, 34254 kPa | 1480
323.14 K, 34287 kPa | 1480.1
323.14 K, 34318 kPa | 1480.4
323.14 K, 34333 kPa | 1480.4
323.14 K, 34347 kPa | 1480.4
323.14 K, 34355 kPa | 1480.4
323.14 K, 34365 kPa | 1480.4
323.14 K, 34376 kPa | 1480.5
323.14 K, 34382 kPa | 1480.5
323.15 K, 2690 kPa | 1295.1
323.15 K, 2710 kPa | 1295.4
323.15 K, 2730 kPa | 1295.6
323.15 K, 2750 kPa | 1295.9
323.15 K, 2770 kPa | 1296.1
323.15 K, 2790 kPa | 1296.3
323.15 K, 2810 kPa | 1296.6
323.15 K, 2860 kPa | 1297.2
323.15 K, 3610 kPa | 1305.8
323.15 K, 5700 kPa | 1326.8
323.15 K, 5730 kPa | 1327.1
323.15 K, 5750 kPa | 1327.2
323.15 K, 5780 kPa | 1327.6
323.15 K, 5810 kPa | 1327.8
323.15 K, 5830 kPa | 1328.1
323.15 K, 5860 kPa | 1328.3
323.15 K, 5890 kPa | 1328.7
323.15 K, 5920 kPa | 1329.1
323.15 K, 5940 kPa | 1329
323.15 K, 7941 kPa | 1346.2
323.15 K, 7982 kPa | 1346.7
323.15 K, 8005 kPa | 1346.8
323.15 K, 8337 kPa | 1349.4
323.15 K, 8351 kPa | 1349.6
323.15 K, 8369 kPa | 1349.8
323.15 K, 8474 kPa | 1350.5
323.15 K, 8495 kPa | 1350.7
323.15 K, 8516 kPa | 1350.8
323.15 K, 8532 kPa | 1351
323.15 K, 8553 kPa | 1351.1
323.15 K, 8569 kPa | 1351.3
323.15 K, 8597 kPa | 1351.5
323.15 K, 8616 kPa | 1351.8
323.15 K, 8637 kPa | 1351.8
323.15 K, 8653 kPa | 1351.9
323.15 K, 8674 kPa | 1352.2
323.15 K, 8690 kPa | 1352.3
323.15 K, 8713 kPa | 1352.5
323.15 K, 8731 kPa | 1352.6
323.15 K, 8753 kPa | 1352.6
323.15 K, 8776 kPa | 1352.9
323.15 K, 8792 kPa | 1353.1
323.15 K, 8817 kPa | 1353.1
323.15 K, 8836 kPa | 1353.4
323.15 K, 8858 kPa | 1353.5
323.15 K, 8877 kPa | 1353.6
323.15 K, 8898 kPa | 1353.8
323.15 K, 9724 kPa | 1360
